{
  "source": "patent US5214156A",
  "about": "“Therapeutically useful tetralin derivatives” (The Upjohn Company, priority 1992, dated 1993)",
  "key": {"dopamine receptors": {"test_system": "dopamine receptors", "details": "background; cited from earlier work"}, "[1]": {"assay": "Bioavailability from ED50 values after s.c. and p.o. administration", "format": "in vivo, rat", "details": "comparing ED50 values, reserpine-pretreated rats", "text": "^f \"Bioch\" denotes the bioavailability as estimated by comparing the\nED50 values after s.c. and p.o. administration (reserpinepretreated rats)"}, "5-HT receptor": {"test_system": "5-HT receptor", "assay": "In-vivo tryptophan hydroxylation (5-HTP formation) in limbic forebrain of reserpine-pretreated rats after NSD 1015", "set-up": "species or system rat", "details": "limbic brain part", "method": "In-vivo determination of rat brain tyrosine and tryptophan hydroxylation after reserpine pretreatment (biochemically monitored dopamine and 5-HT receptor activity)\nThe compounds under evaluation were tested biochemically for central dopamine and 5-HT receptor (pre- and/or postsynaptic) stimulating activity. The concept of this biochemical screening method is that a dopamine or 5-HT-receptor agonist will stimulate the receptor and through regulatory feedback systems effect a decline in tyrosine or tryptophan hydroxylating activity, respectively, and a subsequent reduction in the synthesis rate for dopamine and 5-HT in the presynaptic neuron. Dopamine and 5-HTP formation, as determined after in-vivo inhibition of the aromatic L-amino acid decarboxylase with NSD 1015 (3-hydroxybenzylhydrazine hydrochloride) are taken as indirect measures of dopamine and 5-HT-synthesis rates, respectively.\n(§1) Rats (150-300 g) pretreated with reserpine (5 mg/kg, 18 hours before) were given the test compounds. Gross behavioral observations (changes in motility, hindleg abduction, etc.) were made. Subsequent administration of NSD 1015, decapitation, brain dissection (corpora striata, the limbic forebrain and the remaining hemispheral portions (mainly cortex) or rat brain), homogenization, centrifugation, ion-exchange chromatography and spectrofluorimetric measurements (all as described in detail by Wikstrom, et al., J. Med. Chem., 21, 864-867, 1978 and reference cited therein), or by HPLC/EC, gave the actual dopamine and 5-HTP levels. Several doses (n-4-6) were tested for each compound and brain area. The dose of a compound giving 50% of the maximal reduction of the %-HTP level in the rat brain part was then estimated.\n^b Dose giving a half maximal decrease of 5HTP formation in the rat\nlimbic brain part. The values were estimated from doseresponse curves\ncomprising 4 to 6 levels (n = 4).\nControl level was: 191 ng/g."}, "[2]": {"test_system": "Reserpine Pretreated Rats", "assay": "Gross behavior (antagonism of reserpine-induced neuroleptic syndrome)", "format": "in vivo, rat", "text": "Antagonism of the reserpine-induced \"neuroleptic syndrome\" in the rat (gross behavior)\nDepletion of the monoamine stores with reserpine brings about a \"neuroleptic syndrome\" characterized by hypomotility, catalepsy, muscle rigidity, hunch-backed posture as well as a number of other central and peripheral signs of monoamine depletion. The whole or parts of this syndrome can be reversed by the administration of drugs that stimulate dopamine or 5-HT receptors directly or indirectly.\nStimulation of the dopamine receptors, with apomorphine for example, gives rise to both locomotion and stereotyped behavior such as sniffing, gnawing and jumping. On the other hand, stimulation of the 5-HT receptors, with 5-hydroxytryptophane (5-HTP) combined with MAO-inhibitors for example, gives rise to a very different behavior.\nas §1\n^d The gross behavior of the animals was observed during the course o\nthe experiments. The 5HT behavioral syndrome consisted of flat body\npsoture, abducted hind and forelegs, forepaw treading (pianoplaying) and […]"}, "5-HT1A receptor": {"target": "T1, 5-HT1A receptor (Homo sapiens, UniProt P08908)", "T1 sequence (P08908 1-422)": "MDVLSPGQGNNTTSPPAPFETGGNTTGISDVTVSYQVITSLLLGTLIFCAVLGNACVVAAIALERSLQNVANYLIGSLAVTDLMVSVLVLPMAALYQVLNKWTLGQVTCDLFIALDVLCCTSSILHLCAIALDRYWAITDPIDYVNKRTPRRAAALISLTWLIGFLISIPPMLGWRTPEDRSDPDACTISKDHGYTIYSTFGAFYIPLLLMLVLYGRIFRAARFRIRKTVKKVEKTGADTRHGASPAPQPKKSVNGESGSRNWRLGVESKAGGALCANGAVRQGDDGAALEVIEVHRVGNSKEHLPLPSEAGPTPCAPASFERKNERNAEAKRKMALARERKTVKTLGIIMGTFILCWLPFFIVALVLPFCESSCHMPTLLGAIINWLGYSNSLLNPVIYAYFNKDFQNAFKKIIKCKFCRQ", "assay": "In vitro binding, 5-HT1A", "text": "The compounds of this invention where --OR1 is in the 8 position in the aromatic ring are very selective 5-HT1A receptor agonists having little or no dopaminergic activity. […] These compounds are particularly effective anxiolytic and antidepressant agents. Other uses for these compounds include panic attacks, obsessive-compulsive disturbances, and senile dementia particularly the emotional disturbances seen in dementia disorders. In addition, central 5-HT receptor activation are believed to be involved in mediating sexual behavior. These compounds would be useful to stimulate sexual activity and to alleviate impotence."}, "[3]": {"assay": "Bioavailability from decrease in rectal temperature after s.c. and p.o. administration", "format": "in vivo, rat", "details": "rectal temperature decrease after s.c. (25.0 μmol/kg) and p.o. (100.0 μmol/kg); nonpretreated rats", "text": "\"Temp\" denotes the bioavailabilty as estimated by comparing the decrease\nin rectal temperature after s.c. (25.0 μmol/kg) and p.o. (100.0\nμmol/kg) administration of the test drugs in nonpretreated rats (c.f.,\nFIGS. 1 and 2). \"Plasma\" denotes the availability as estimated by […]"}, "dopamine D2 receptor": {"target": "dopamine D2 receptor (Homo sapiens, UniProt P14416)", "sequence (P14416 whole entry, species assumed)": "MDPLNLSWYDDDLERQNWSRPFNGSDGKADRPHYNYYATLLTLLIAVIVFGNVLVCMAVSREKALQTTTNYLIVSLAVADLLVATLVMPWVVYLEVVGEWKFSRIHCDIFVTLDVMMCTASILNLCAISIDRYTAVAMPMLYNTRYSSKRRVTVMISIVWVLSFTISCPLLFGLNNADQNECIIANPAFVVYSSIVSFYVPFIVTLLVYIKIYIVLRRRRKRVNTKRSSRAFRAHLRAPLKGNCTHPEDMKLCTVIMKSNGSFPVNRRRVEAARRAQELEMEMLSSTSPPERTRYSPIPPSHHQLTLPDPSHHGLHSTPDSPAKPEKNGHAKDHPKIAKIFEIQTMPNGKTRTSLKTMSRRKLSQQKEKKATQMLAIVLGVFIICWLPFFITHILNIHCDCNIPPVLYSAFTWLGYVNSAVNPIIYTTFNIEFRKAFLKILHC", "assay": "In vitro binding, dopamine D2", "method": "^e The affinity of the test compounds for dopamine D2 receptor sites\nwas determined by calculating the IC50 value (see text)."}, "[4]": {"assay": "Bioavailability from plasma drug levels (GC/MS) after s.c. and p.o. administration", "format": "in vivo, rat", "details": "plasma drug levels by GC/MS after s.c. and p.o.; nonpretreated rats", "text": "FIGS. 1 and 2). \"Plasma\" denotes the availability as estimated by\ncomparing plasma drug levels (measured by means of GC/MS) after s.c. and\np.o. administration of test drugs in nonpretreated rats."}, "[5]": {"test_system": "spontaneously hypertensive rats", "assay": "Blood pressure lowering in spontaneously hypertensive rats", "format": "in vivo, rat", "text": "Pharmacol. 37, 263-265 (1984). Without further elaboration,it is believed that one skilled in the art can, using the preceding description, practice the present invention to its fullest extent."}},
  "note": "Read-outs that look alike come from different tables or passages of the source.",
  "data": [
    {"compound": "O=C1CC2(CCCC2)CC(=O)N1CCCCN1CCN(c2ncccn2)CC1", "note": "[Buspirone]", "values": [
      {"measurement": "dopamine receptor antagonism / agonism", "setting": "dopamine receptors", "result": "antagonizes dopamine receptors at the same dose it stimulates 5-HT1A receptors"}
    ]},
    {"compound": "CCCN(CC1CC1)C1CCc2cccc(OC)c2C1", "note": "(stereo not shown) [Example 8-OMe-CPMAT, 8Methoxy-2-(N-cyclopropylmethyl-N-n-propylamino)tetralin]", "values": [
      {"measurement": "Bioavailability bioch po/sc", "setting": "[1]", "result": 12, "unit": "%"},
      {"measurement": "ED50 5-HTP limb", "setting": "5-HT receptor; po", "result": 3.3, "unit": "µmol/kg"},
      {"measurement": "ED50 5-HTP limb", "setting": "5-HT receptor; sc", "result": 0.40, "unit": "µmol/kg"},
      {"measurement": "Behavior", "setting": "[2]; po", "result": "5-HT syndr"},
      {"measurement": "Behavior", "setting": "[2]; sc", "result": "5-HT syndr"},
      {"measurement": "IC50", "setting": "5-HT1A receptor; in vitro binding, read-out: In vitro binding 5-HT1A IC50", "result": 0.006, "unit": "µM"}
    ]},
    {"compound": "COc1cccc2c1CC(N(CC1CC1)CC1CC1)CC2", "note": "(stereo not shown) [Example 8-OMe-DCPMAT, 8Methoxy-2-(N,N-dicyclopropylmethylamino)tetralin]", "values": [
      {"measurement": "Bioavailability bioch po/sc", "setting": "[1]", "result": 60, "unit": "%"},
      {"measurement": "ED50 5-HTP limb", "setting": "5-HT receptor; po", "result": 2.0, "unit": "µmol/kg"},
      {"measurement": "ED50 5-HTP limb", "setting": "5-HT receptor; sc", "result": 1.2, "unit": "µmol/kg"},
      {"measurement": "Bioavailability temp po/sc", "setting": "[3]", "result": 36, "unit": "%"},
      {"measurement": "IC50", "setting": "dopamine D2 receptor", "result": 40, "unit": "µM"},
      {"measurement": "Bioavailability plasma po/sc", "setting": "[4]", "result": "6-16%"},
      {"measurement": "Behavior", "setting": "[2]; po", "result": "5-HT syndr"},
      {"measurement": "Behavior", "setting": "[2]; sc", "result": "5-HT syndr"},
      {"measurement": "IC50", "setting": "5-HT1A receptor", "result": 0.021, "unit": "µM"},
      {"measurement": "IC50 ratio of dopamine D2 to 5HT1A in vitro binding (selectivity)", "setting": "5-HT1A receptor; in vitro binding, Table 1 data", "result": "demonstrates the selectivity for the 5-HT1A receptor"}
    ]},
    {"compound": "COc1cccc2c1C[C@H](N(CC1CC1)CC1CC1)CC2", "note": "[Example 12, (+)-R-8-Methoxy-2-(di-cyclopropyl-methylamino)tetralin]", "values": [
      {"measurement": "blood pressure lowering effects", "setting": "[5]", "result": "demonstrate blood pressure lowering effects"}
    ]},
    {"compound": "COc1cccc2c1CC(N(CCc1cccs1)CC1CC1)CC2", "note": "(stereo not shown) [Example 17, 8-Methoxy-2-(N-cyclopropylmethyl-N-(2-thiophenethyl)-amino)tetralin]", "values": [
      {"measurement": "blood pressure lowering effects", "setting": "[5]", "result": "demonstrate blood pressure lowering effects"}
    ]},
    {"compound": "CC1(C)CC(=O)N(CCCCN2CCN(c3ncccn3)CC2)C(=O)C1", "note": "[Gepirone]", "values": [
      {"measurement": "dopamine receptor antagonism / agonism", "setting": "dopamine receptors", "result": "has dopamine antagonist properties"}
    ]},
    {"compound": "CN1CCc2cccc3c2[C@H]1Cc1ccc(O)c(O)c1-3", "note": "[apomorphine]", "values": [
      {"measurement": "dopamine receptor antagonism / agonism", "setting": "dopamine receptors", "result": "able to activate the dopamine autoreceptors as well as the post synaptic dopamine receptors"}
    ]},
    {"compound": "(-)-R-8-Methoxy-2-(di-cyclopropylmethylamino)tetralin [Example 13]", "values": [
      {"measurement": "blood pressure lowering effects", "setting": "[5]", "result": "demonstrate blood pressure lowering effects"}
    ]}
  ]
}
